Results: paper PMC7557804, “The Anti-Microbial Peptide (Lin-SB056-1)2-K Reduces Pro-Inflammatory Cytokine Release through Interaction with Pseudomonas aeruginosa Lipopolysaccharide” (Antibiotics, 2020)
“Also recorded” adds a separate entry of the source.

How the values were obtained:
A549 cells = test: Cytotoxicity (LDH release) towards A549 cells; type: cell-based, Human; settings: LPS-stimulated A549, 4 h
Protocol: (§1) Human non-small-cell lung adenocarcinoma A549 cells (ATCC CCL-185; LGC Standards, Milan, Italy) and human monocytic THP-1 cells (ATCC TIB-202; LGC Standards) were cultured in tissue culture flasks in Dulbecco’s modified essential medium (DMEM) (Euroclone, Milan, Italy) and RPMI 1640 medium (Euroclone), respectively. Both media were supplemented with 2 mM L-glutamine (Euroclone) and 10% heat-inactivated fetal bovine serum (FBS; Euroclone). Confluent monolayers were detached from the culture flask with 0.25% trypsin/1 mM EDTA solution (Euroclone), suspended in complete culture medium and seeded into flat-bottom 96-well plates at a final density of 1 × 10^4 cells/well (A549) and 2 × 10^4 cells/well (THP-1). A549 cells were cultured for 24 h at 37 °C, 5% CO2 in order to allow adhesion and formation of semi-confluent monolayers. THP-1 cells were cultured for 3 days (37 °C, 5% CO2) in the presence of 100 nM TPA (Sigma-Aldrich, St. Louis, MO, USA) to induce their differentiation into macrophage-like cells.
The cytotoxicity of lin-SB056-1 and (lin-SB056-1)2-K towards A549 and THP-1 cells was evaluated to exclude a possible correlation between reduction in cytokine levels and decrease in cell numbers. To this end, culture supernatants of cells stimulated with LPS in the presence of the peptides were employed to quantify the amount of cytoplasmic LDH released by dead cells. Cells incubated in culture medium alone or in the presence of LPS served as an indication of spontaneous cell death (cell viability controls), while cells treated with a commercial lysis buffer (Pierce LDH cytotoxicity assay kit, Thermo Fisher Scientific) were used as cell death control (100% cell lysis). The enzymatic activity of LDH in cell supernatants was measured using the Pierce LDH cytotoxicity assay kit (Thermo Fisher Scientific) following manufacturer’s instructions. The cytotoxic effect was determined as follows: cytotoxicity (%) = [(LDH activity of A/LDH activity of B) × 100], where A represents peptide-treated or untreated cells (both in the presence and absence of LPS), and B corresponds to the cell lysis control.

THP-1 macrophages = test: LPS-induced cytokine production by THP-1 macrophages; type: cell-based, Human; settings: P. aeruginosa LPS 10 ng/mL, 4 h, 37 °C, 5% CO2
Protocol: as §1
The anti-inflammatory potential of lin-SB056-1 and (lin-SB056-1)2-K was assessed by evaluating their ability to reduce LPS-induced production of pro-inflammatory cytokines by A549 cells and THP-1 macrophages. […] Following incubation, cell culture supernatants were collected, filter sterilized (0.22 µm) and employed for the quantification of cytokines and the assessment of cell viability.
(§2) Different pro-inflammatory cytokines (i.e., IL-1β, IL-6, IL-8 and TNF-α) were quantified in cell culture supernatants through a bead-based multiplex immunoassay (LEGENDplex multi-analyte flow assay kit; BioLegend, San Diego, CA, USA) following manufacturer’s instructions. […] Following consecutive washing steps, the beads were resuspended in the LEGENDplex wash buffer and the samples were analyzed by flow cytometry (BD Accuri C6 flow cytometer; BD Biosciences, Mountain View, CA, United States). Data were acquired with the BD Accuri C6 software (BD Biosciences) (300 events per analyte) and analyzed with the LEGENDplex software (BioLegend). […]

[1] = test system: lung epithelial- and macrophage-cell lines stimulated with P. aeruginosa LPS; test: LPS-induced production of pro-inflammatory cytokines, overall result; type: cell-based, Human
Protocol: The anti-inflammatory potential of lin-SB056-1 and (lin-SB056-1)2-K was assessed by evaluating their ability to reduce LPS-induced production of pro-inflammatory cytokines by A549 cells and THP-1 macrophages. In order to ensure cytokine production, cell monolayers were stimulated with LPS from P. aeruginosa serotype 10 (purified by phenol extraction; Sigma-Aldrich, Milano, Italy) at a final concentration of 10 ng/mL (THP-1) and 800 ng/mL (A549). LPS concentrations used in the experiments were chosen based on preliminary assays aimed at identifying the minimum dose of the molecule able to stimulate cytokine production after 4 h of exposure. […] Following incubation, cell culture supernatants were collected, filter sterilized (0.22 µm) and employed for the quantification of cytokines and the assessment of cell viability.
as §2, with “States).” for “States). Data were acquired with the BD Accuri C6 software (BD Biosciences) (300 events per analyte) and analyzed with the LEGENDplex software (BioLegend).”

P. aeruginosa = settings: 3-D lung epithelial cell model, cited from earlier work
Description: In our previous work, we explored different strategies to enhance the anti-bacterial and anti-biofilm activity of the semi-synthetic peptide lin-SB056-1 [12] in physiologically relevant, host-mimicking conditions that are known to interfere with the stability and efficacy of AMPs.

[2] = LAL assay, LPS neutralization; type: biochemical, Escherichia coli; settings: E. coli 011:B4 LPS 2 EU/mL, 37 °C
Protocol: The ability of lin-SB056-1 and (lin-SB056-1)2-K to neutralize the activity of LPS was analyzed using a standardized LAL assay (Pierce LAL chromogenic endotoxin quantitation kit; Thermo Fisher Scientific). Peptides at different concentrations (2.4 to 19.25 μM) were pre-incubated with E. coli 011:B4 LPS (2 Endotoxin Units (EU)/mL; EU = unit of measurement for endotoxin activity) for 30 min (37 °C, shaking) in order to promote the interaction between the two molecules. LPS alone was used as positive control. Following incubation, peptide-treated and untreated samples were mixed with the LAL reagent (1:1 ratio) and incubated for 10 min at 37 °C. Subsequently, 100 μL of the chromogenic substrate were added and incubated with the samples for 6 min. The reaction was terminated by adding 100 μL of acetic acid (25% v/v), and absorbance was measured at 405 nm ([…]) using a microplate reader (Multiscan FC, Life Technologies Italia, Monza, Italy). The amount of peptide-sequestered LPS was determined as follows: LPS neutralization (%) = [100 − (ODpeptide/ODpositive control × 100)].

[3] = 9.6 μM peptide, vs LPS-stimulated peptide-untreated control, statistically significant, mean of three independent experiments

[KWKIRVRLSA]2-K [(lin-SB056-1)2-K, dendrimeric derivative of lin-SB056-1]
cell death (LDH release), with LPS (A549 cells; up to 19.25 μM (highest tested), 37 °C, 5% CO2, relative to cell lysis control, at least three independent experiments): less than 5%
toxicity (A549 cells; up to 19.25 μM, LDH release): no detectable toxicity
reduction in secretion of IL-1β (THP-1 macrophages; [3]): 80%
reduction in secretion of IL-6 (THP-1 macrophages; [3]): 60%
effect on TNF-α levels (THP-1 macrophages; three independent experiments): a trend in decreasing TNF-α levels, no statistical significance was reached
anti-inflammatory effect compared to monomeric counterpart ([1]; LPS and/or P. aeruginosa stimulation): superior anti-inflammatory effect compared to its monomeric counterpart
decrease in LPS-induced production of pro-inflammatory cytokines (IL-1β, IL-6 and IL-8) ([1]; lung epithelial- and macrophage-cell lines, P. aeruginosa LPS): up to 80%
reduction in the number of biofilm-forming bacteria (P. aeruginosa; 19.25 µM): ≤ 99.9%
anti-biofilm activity (P. aeruginosa; compared to lin-SB056-1 and lin-SB056-1/EDTA): stronger anti-biofilm activity compared to both lin-SB056-1 and the lin-SB056-1/EDTA combination
LPS neutralization ([2]; 19.25 μM peptide, pre-incubation 30 min, shaking, LAL reagent 10 min, chromogenic substrate 6 min, absorbance 405 nm (OD450), vs peptide-untreated control, mean of three independent experiments): ~100%
LPS neutralization / LAL activity ([2]; 2.4 to 19.25 μM peptide, 30 min): higher LPS-binding ability than lin-SB056-1; also recorded: reduction of LAL activity
